Experimental data as given in patent US20100099700A1, “HYDROGENATED PYRIDO (4,3-B) INDOLES FOR TREATING AMYOTROPHIC LATERAL SCLEROSIS (ALS)” (priority 2006, published 2010).
“Also recorded” adds a separate entry of the source. Like-named read-outs stand apart in the source and are kept apart here.

Columns and labels:
[1] = system: wildtype Drosophila fruit flies; experiment: Toxicity of dimebon in wildtype Drosophila (eclosion number and timing); type: in vivo; details: daily
Method: Dimebon was evaluated for toxicity levels in wildtype Drosophila fruit flies as described in U.S. Provisional Patent Application No. 60/723,403. Dimebon was administered daily at doses ranging from 10 μM to 1 mM to explore its toxicity. An untreated control group was also studied in this experiment. The concentrations given were concentrations of dimebon in the food that animals drink/eat ad libitum. The food consisted of cornmeal, dextrose, yeast and agar.
About 500 wild type Drosophila eggs were collected on grape juice plates, washed with distilled water and transferred 100 per vial to grow at 25 degrees C. The adult progeny were scored after eclosing (emerging from the pupal case) beginning 10 days later. The criteria used for toxicity were the number (%) of animals that eclose and the time of the eclosing. For example, fewer animals may emerge from the pupal case if a drug is toxic or the same number of animals may eclose but more slowly than the untreated control group.

G93AmSOD mice = experiment: G93AmSOD transgenic mouse treatment model (time to stage 2 / stage 1 disease); type: in vivo
Method: For this study, G93AmSOD mice were randomized into 4 treatment groups. Mice were weaned and raised on a normal diet for 85 days. Beginning at approximately day 80 or earlier if noted clinically, animals underwent daily assessment for hind limb weakness (time to stage 3 disease). In general, this occurred within a week of day 85. At 85 days, mice were given dimebon in the drinking water at the following concentrations: vehicle control (0 mg/kg/day), low dose (3 mg/kg/day), medium dose (10 mg/kg/day), and high dose (30 mg/kg/day). The drinking water was changed every 3-4 days, and each cage held approximately 3-5 animals.
Animals were weighed and analyzed daily to assess their strength and function. The day during which hind limb paralysis occurred was recorded (progression to stage 2 disease). Also recorded was the day at which the animals could no longer right themselves after 30 seconds (progression to stage 1 disease—a surrogate for mortality). Upon reaching stage 1 disease, animals were euthanized. […] When animals were no longer able to reliably reach the drinking water, they were given their daily mg/kg dose by intraperitoneal injection. Analyses were performed to compare the groups in terms of time to reach stage 2 and time to reach stage 1. As described further below, a Cox proportional hazards model including the effect of treatment group was fit.
A Cox proportional hazards regression model including the effect of treatment group was fit for the time to stage 2 for both sexes combined. In addition to testing the null hypothesis of no difference among the four groups, pair wise comparisons of each of the treated groups to the control group were tested. The model was fit using the SAS PHREG procedure. The same type of model was then fit to the data for each sex separately.
A Cox proportional hazards regression model including the effect of treatment group was fit for the time to stage 1 for both sexes combined. In addition to testing the null hypothesis of no difference among the four groups, pair wise comparisons of each of the treated groups to the control group were tested. The model was fit using the SAS PHREG procedure. The same type of model was then fit to the data for each sex separately.

[2] = system: transgenic Drosophila engineered to express the mutant huntingtin protein in all their neurons; experiment: Inhibition of mutant huntingtin-induced neurodegeneration of photoreceptor neurons in Drosophila eyes (pseudopupil method); type: in vivo; details: 7 days
Method: Dimebon was administered to one group of transgenic Drosophila engineered to express the mutant huntingtin protein in all their neurons as described in U.S. Provisional Patent Application No. 60/723,403. This was accomplished by cloning a foreign gene into transposable p-element DNA vectors under control of a yeast upstream activator sequence that was activated by the yeast GAL4 transcription factor. These promoter fusions were injected into fly embryos to produce transgenic animals. The foreign gene is silent until crossed to another transgenic strain of flies expressing the GAL4 gene in a tissue specific manner. The Elav>Gal4 which expresses the transgene in all neurons from birth until death was used in the experiments described. The two types of transgenic animals were crossed in order to collect enough closely matched aged controls to study. The crossed aged-matched adults (−20 per dosing group) were placed on drug containing food for 7 days. Animals were transferred to fresh food daily to minimize any effects caused by instability of the compounds. Survival was scored daily. At day 7, animals were sacrificed and the number of photoreceptor neurons surviving was counted.

primary chick neurons [3] = experiment: 2% growth factor withdrawal (low serum) assay, MTT viability; type: cell-based, chicken
Method: (§1) Cells: Lohman Brown chicken embryo hybrids were used for the assay. One-day-old fertilised eggs were purchased from a local chicken breeder (Schropper Geflügel GmbH, Austria) and stored in the lab under appropriate conditions (12° C. and 80% humidity). At embryonic day 0 eggs were transferred into a breeding incubator and stored under permanent turning until embryonic day 8 at 37.8° C. and 55% humidity. Approximately five to six chicken embryos were used for isolation of neurons per experiment.
(§2) Eggs were wiped with 70% ethanol and cracked with large forceps at the blunt end. After decapitation of the embryo, the tissue covering the telencephalon was removed and hemispheres collected. After removing any loose tissue and remaining meningeal membranes, hemispheres were transferred into a dish containing nutrition medium. The tissue was dissociated mechanically by using a 1 ml pipette and by squeezing 3 times through a sterile nylon sieve with a pore size of 100 μm.
Poly-D-Lysine coated 96-well microtiter plates (Biocoat) were used to culture the cells. Culture medium (160 μl) containing 3×10^5 cells/ml nutrition medium (48 000 cells/well) were added to each well of a microtiter plate Plates were kept at 37° C., 95% humidity and 5% CO2 without change of media. Neurons begin to extend processes after a few hours in culture.
Low Serum Culture Conditions: The low serum medium used for the 2% growth factor withdrawal experiments described here includes EMEM with 1 g glucose/l and 2% FCS. The control medium includes DMEM with 4.5 g glucose/l and 5% Nu Serum. […]
Dimebon was applied to the cells on day 1 for the whole experimental period of 8 days. Viability of cells was determined with the MTT assay using a plate-reader (570 nM). […] Since this reaction is catalysed in living cells only the assay can be used for the quantification of cell viability. […] To estimate optical density a plate-reader (Anthos HT II) was used at wavelength 570 nM. […]

primary chick neurons [4] = experiment: 2% growth factor withdrawal (low serum) assay, AM-Calcein; type: cell-based, chicken; details: p<0.01, 8 days
Method: as §1, §2
Poly-D-Lysine coated 96-well microtiter plates (Biocoat) were used to culture the cells. Culture medium (160 μl) containing 3×10^5 cells/ml nutrition medium (48 000 cells/well) were added to each well of a microtiter plate Plates were kept at 37° C., 95% humidity and 5% CO2 without change of media. Neurons begin to extend processes after a few hours in culture. […]

[5] = system: transgenic Drosophila engineered to express the mutant huntingtin protein in all their neurons; details: historical positive control; cited from earlier work
[6] = 3 mg/kg/day versus vehicle, both sexes combined
[7] = 3 mg/kg/day versus vehicle, females
[8] = 3 mg/kg/day versus vehicle, males
[9] = 3 mg/kg/day, both sexes combined
[10] = 10 mg/kg/day versus vehicle, both sexes combined
[11] = 10 mg/kg/day versus vehicle, females
[12] = 10 mg/kg/day versus vehicle, males
[13] = 10 mg/kg/day, both sexes combined
[14] = 30 mg/kg/day versus vehicle, both sexes combined
[15] = 30 mg/kg/day versus vehicle, females
[16] = 30 mg/kg/day versus vehicle, males
[17] = 30 mg/kg/day, both sexes combined

Cc1ccc2c(c1)c1c(n2CCc2ccc(C)nc2)CCN(C)C1.Cl.Cl [dimebon, 2,8-dimethyl-5-(2-(6-methyl-3-pyridyl)-ethyl)-2,3,4,5-tetrahydro-1H-pyrido(4,3-b)indol dihydrochloride]
% of animals eclosing ([1]; 1 mM in food): decrease | timing of emergence slowed ([1]; 1 mM in food): approximately 1 day | toxicity (% of animals that eclose and time of eclosing) ([1]; doses below 1 mM in food, dihydrochloride): no significant toxicity; also recorded: did not show significant toxicity | Time to Stage 1: hazard ratio (Cox proportional hazards) (G93AmSOD mice; [6]): 1.112 | Time to Stage 2: hazard ratio (Cox proportional hazards) (G93AmSOD mice; [6]): 0.969 | Time to Stage 1: hazard ratio (Cox proportional hazards) (G93AmSOD mice; [7]): 1.089 | Time to Stage 2: hazard ratio (Cox proportional hazards) (G93AmSOD mice; [7]): 0.882 | Time to Stage 1: hazard ratio (Cox proportional hazards) (G93AmSOD mice; [8]): 0.967 | Time to Stage 2: hazard ratio (Cox proportional hazards) (G93AmSOD mice; [8]): 0.984 | Mean Time to Stage 1 (Expressed as a Percentage of the Mean in the Vehicle Group) (G93AmSOD mice; [9]): 98.8% | Mean Time to Stage 2 (Expressed as a Percentage of the Mean in the Vehicle Group) (G93AmSOD mice; [9]): 99.8% | Mean Time to Stage 1 (Expressed as a Percentage of the Mean in the Vehicle Group) (G93AmSOD mice; 3 mg/kg/day, females): 97.4% | Mean Time to Stage 2 (Expressed as a Percentage of the Mean in the Vehicle Group) (G93AmSOD mice; 3 mg/kg/day, females): 100.2% | Mean Time to Stage 1 (Expressed as a Percentage of the Mean in the Vehicle Group) (G93AmSOD mice; 3 mg/kg/day, males): 100.2% | Mean Time to Stage 2 (Expressed as a Percentage of the Mean in the Vehicle Group) (G93AmSOD mice; 3 mg/kg/day, males): 99.4% | Time to Stage 1: hazard ratio (Cox proportional hazards) (G93AmSOD mice; [10]): 0.738 | Time to Stage 2: hazard ratio (Cox proportional hazards) (G93AmSOD mice; [10]): 0.652 | Time to Stage 1: hazard ratio (Cox proportional hazards) (G93AmSOD mice; [11]): 0.855 | Time to Stage 2: hazard ratio (Cox proportional hazards) (G93AmSOD mice; [11]): 0.659 | Time to Stage 1: hazard ratio (Cox proportional hazards) (G93AmSOD mice; [12]): 0.524 | Time to Stage 2: hazard ratio (Cox proportional hazards) (G93AmSOD mice; [12]): 0.545 | Mean Time to Stage 1 (Expressed as a Percentage of the Mean in the Vehicle Group) (G93AmSOD mice; [13]): 103.3% | Mean Time to Stage 2 (Expressed as a Percentage of the Mean in the Vehicle Group) (G93AmSOD mice; [13]): 104.9% | Mean Time to Stage 1 (Expressed as a Percentage of the Mean in the Vehicle Group) (G93AmSOD mice; 10 mg/kg/day, females): 102.3% | Mean Time to Stage 2 (Expressed as a Percentage of the Mean in the Vehicle Group) (G93AmSOD mice; 10 mg/kg/day, females): 104.9% | Mean Time to Stage 1 (Expressed as a Percentage of the Mean in the Vehicle Group) (G93AmSOD mice; 10 mg/kg/day, males): 104.2% | Mean Time to Stage 2 (Expressed as a Percentage of the Mean in the Vehicle Group) (G93AmSOD mice; 10 mg/kg/day, males): 104.9% | Time to Stage 1: hazard ratio (Cox proportional hazards) (G93AmSOD mice; [14]): 0.505 | Time to Stage 2: hazard ratio (Cox proportional hazards) (G93AmSOD mice; [14]): 0.522 | Time to Stage 1: hazard ratio (Cox proportional hazards) (G93AmSOD mice; [15]): 0.314 | Time to Stage 2: hazard ratio (Cox proportional hazards) (G93AmSOD mice; [15]): 0.359 | Time to Stage 1: hazard ratio (Cox proportional hazards) (G93AmSOD mice; [16]): 0.647 | Time to Stage 2: hazard ratio (Cox proportional hazards) (G93AmSOD mice; [16]): 0.698 | Mean Time to Stage 1 (Expressed as a Percentage of the Mean in the Vehicle Group) (G93AmSOD mice; [17]): 104.7% | Mean Time to Stage 2 (Expressed as a Percentage of the Mean in the Vehicle Group) (G93AmSOD mice; [17]): 104.8% | Mean Time to Stage 1 (Expressed as a Percentage of the Mean in the Vehicle Group) (G93AmSOD mice; 30 mg/kg/day, females): 107.0% | Mean Time to Stage 2 (Expressed as a Percentage of the Mean in the Vehicle Group) (G93AmSOD mice; 30 mg/kg/day, females): 107.7% | Mean Time to Stage 1 (Expressed as a Percentage of the Mean in the Vehicle Group) (G93AmSOD mice; 30 mg/kg/day, males): 102.4% | Mean Time to Stage 2 (Expressed as a Percentage of the Mean in the Vehicle Group) (G93AmSOD mice; 30 mg/kg/day, males): 101.8% | rescue of photoreceptor neurons ([2]; 10 μM in food): lesser but still apparent rescue of neurons | rescue of photoreceptor neurons compared to untreated controls ([2]; 100 μM in food): statistically significant (p=0.0014) rescue of neurons | rescue of photoreceptor neurons ([2]; 1 mM in food): still appeared to cause neuronal rescue, but to a lesser extent | Emax at 6.25 µM (primary chick neurons [3]; Gallus gallus, Neuron, 192 h, 6250 nM, 8 days, read-out: maximum effect in the MTT assay, above control): ~287% | Dimebon concentrations at which statistically significant differences compared to control were achieved (primary chick neurons [3]; MTT, p<0.05, 8 days): ≥ 1250 nM | effect in the MTT assay (primary chick neurons [3]; highest tested concentration 31250 nM): less than what was achieved at a concentration of 6250 nM | Dimebon concentrations at which statistically significant differences compared to control were achieved (primary chick neurons [4]): ≥ 1250 nM

C[C@@H](N)[C@H]1CC[C@H](C(=O)Nc2ccncc2)CC1 [Y-27632]
rescue of photoreceptor neurons [5]: strongly rescuing
